{"source": "patent US7816410B2", "about": "“Pesticidal compositions” (priority 2003, dated 2010)", "assay_type_in_all_cases": "in vivo", "settings_in_all_cases": "15 gai/hL", "key": {"[1]": {"tested_on": "glasshouse whitefly (Trialeurodes vaporariorum)", "assay": "Whitefly nymph curative test", "source_text": "The aim of this study was to determine the efficacy of the compositions of the invention on separate life stages of the glasshouse whitefly (Trialeurodes vaporariorum).\nA second test was to determine the efficacy of composition B as a curative treatment against whitefly nymphs and the third test was to determine the effects of the composition as a (repellent) protectant spray against whitefly adults.\nAll treatments were applied to tobacco plants (var. Tobacco nicotiana) using a hand-held atomiser (CEME-984), applied to both surfaces of the leaf, to incipient run-off. The composition was applied at 5000, 1000, 200, 100 and 50 mL product/hL, Imidacloprid (reference item) was applied at 15 gai/hL and controls were sprayed with deionised water only.\nThree replicate plants were sprayed for each treatment. The treated plants were maintained in a controlled environment room at 22.9-34.4° C., with lighting on a 16 h light/8 h dark cycle. Light intensity was recorded as 870-1464 lux. Relative humidity was recorded as being between 25.1-85.2%.\nFor the curative nymph test, leaves with nymphs 7-12 days old were treated and assessments of mortality made at 4, 7 and 10 days after application."}, "[2]": {"tested_on": "glasshouse whitefly (Trialeurodes vaporariorum)", "assay": "Whitefly ovicide protectant test", "procedure": "(§1) The aim of this study was to determine the efficacy of the compositions of the invention on separate life stages of the glasshouse whitefly (Trialeurodes vaporariorum). Three studies were undertaken, the first to determine the efficacy of the composition of the invention as an ovicide in both protectant and curative treatments. The following composition (Composition B) was prepared: All treatments were applied to tobacco plants (var. Tobacco nicotiana) using a hand-held atomiser (CEME-984), applied to both surfaces of the leaf, to incipient run-off. The composition was applied at 5000, 1000, 200, 100 and 50 mL product/hL, Imidacloprid (reference item) was applied at 15 gai/hL and controls were sprayed with deionised water only. Three replicate plants were sprayed for each treatment. The treated plants were maintained in a controlled environment room at 22.9-34.4° C., with lighting on a 16 h light/8 h dark cycle. Light intensity was recorded as 870-1464 lux. Relative humidity was recorded as being between 25.1-85.2%. For the ovicide test, plants were treated (both infested and uninfested with eggs). For the curative test, leaf discs were taken and egg numbers counted. For the protectant test, treated plants were infested after treatment then leaf discs taken with known numbers of eggs. […]"}, "[3]": {"tested_on": "glasshouse whitefly (Trialeurodes vaporariorum)", "assay": "Whitefly adult repellence (protectant) test", "source_text": "The aim of this study was to determine the efficacy of the compositions of the invention on separate life stages of the glasshouse whitefly (Trialeurodes vaporariorum). A second test was to determine the efficacy of composition B as a curative treatment against whitefly nymphs and the third test was to determine the effects of the composition as a (repellent) protectant spray against whitefly adults. All treatments were applied to tobacco plants (var. Tobacco nicotiana) using a hand-held atomiser (CEME-984), applied to both surfaces of the leaf, to incipient run-off. The composition was applied at 5000, 1000, 200, 100 and 50 mL product/hL, Imidacloprid (reference item) was applied at 15 gai/hL and controls were sprayed with deionised water only. Three replicate plants were sprayed for each treatment. The treated plants were maintained in a controlled environment room at 22.9-34.4° C., with lighting on a 16 h light/8 h dark cycle. Light intensity was recorded as 870-1464 lux. Relative humidity was recorded as being between 25.1-85.2%. The adult protectant test, assessed the numbers of alive adults on treated leaves after immersion in an adult whitefly infested chamber, 15 and 18 days after application."}, "[4]": {"tested_on": "glasshouse whitefly (Trialeurodes vaporariorum)", "assay": "Whitefly ovicide curative test", "procedure": "as §1"}}, "data": [{"smiles": "O=[N+]([O-])NC1=NCCN1Cc1ccc(Cl)nc1", "note": "[Imidacloprid]", "values": [{"measurement": "percentage whitefly nymph mortality", "setting": "[1]; 4 DAA", "value": 100.0, "unit": "%"}, {"measurement": "percentage whitefly nymph mortality", "setting": "[1]; 7 DAA", "value": 100.0, "unit": "%"}, {"measurement": "percentage whitefly nymph mortality", "setting": "[1]; 10 DAA", "value": 100.0, "unit": "%"}, {"measurement": "percentage whitefly egg hatch", "setting": "[2]; 1 DAA", "value": 0.0, "unit": "%"}, {"measurement": "percentage whitefly egg hatch", "setting": "[2]; 3 DAA", "value": 0.0, "unit": "%"}, {"measurement": "percentage whitefly egg hatch", "setting": "[2]; 7 DAA", "value": 0.0, "unit": "%"}, {"measurement": "number of adult whitefly per leaf", "setting": "[3]; 15 DAA", "value": 0}, {"measurement": "number of adult whitefly per leaf", "setting": "[3]; 18 DAA", "value": 0}, {"measurement": "percentage whitefly egg hatch", "setting": "[4]; 1 DAA", "value": 0.0, "unit": "%"}, {"measurement": "percentage whitefly egg hatch", "setting": "[4]; 3 DAA", "value": 75.2, "unit": "%"}, {"measurement": "percentage whitefly egg hatch", "setting": "[4]; 7 DAA", "value": 91.4, "unit": "%"}]}]}
